Patent US8367695B2, “Condensed tetrahydroquinoline derivative and use thereof for medical purposes” (Mitsubishi Tanabe Pharma Corporation, priority 2007, dated 2013)

Biological target: T1, Glucocorticoid Receptor (GR), CHO-GRE-Luc #35 cells (Cricetulus griseus, UniProt A0A9J7F8I2)
T1 sequence (A0A9J7F8I2 1-774): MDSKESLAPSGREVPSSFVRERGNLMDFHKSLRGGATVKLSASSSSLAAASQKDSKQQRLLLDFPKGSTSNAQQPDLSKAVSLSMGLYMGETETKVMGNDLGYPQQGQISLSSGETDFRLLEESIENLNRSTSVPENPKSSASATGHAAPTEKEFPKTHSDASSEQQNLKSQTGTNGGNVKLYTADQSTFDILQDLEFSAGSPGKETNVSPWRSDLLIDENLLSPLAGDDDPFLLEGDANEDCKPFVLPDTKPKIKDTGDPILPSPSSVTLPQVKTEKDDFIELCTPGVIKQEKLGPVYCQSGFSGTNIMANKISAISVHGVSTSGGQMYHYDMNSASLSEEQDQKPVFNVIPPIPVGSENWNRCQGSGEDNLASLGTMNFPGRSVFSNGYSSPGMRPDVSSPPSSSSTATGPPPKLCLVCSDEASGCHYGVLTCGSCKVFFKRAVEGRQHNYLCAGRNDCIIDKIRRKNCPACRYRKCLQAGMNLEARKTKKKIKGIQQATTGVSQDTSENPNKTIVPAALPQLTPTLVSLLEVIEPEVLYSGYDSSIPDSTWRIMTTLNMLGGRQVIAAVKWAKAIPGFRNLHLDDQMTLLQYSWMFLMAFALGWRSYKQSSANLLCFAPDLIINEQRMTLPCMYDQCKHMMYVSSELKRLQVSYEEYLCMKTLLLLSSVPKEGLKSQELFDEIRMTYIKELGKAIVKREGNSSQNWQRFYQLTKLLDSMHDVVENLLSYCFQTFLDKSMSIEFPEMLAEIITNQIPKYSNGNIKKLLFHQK
Experiment: Glucocorticoid receptor function test using transgenic-recombinant cell (GRE-luciferase)
Assay type: cell-based
Conditions: against GR stimulation with 10 nM dexamethasone, luciferase, about 6 hr; read-out: GR (IC50: nM)
Description: Glucocorticoid Receptor Function Test Using Transgenic-Recombinant Cell
Transgenic-recombinant cell was prepared by our company (Yokohama, JP). In Hokkaido System Science Co., Ltd., a cis-element wherein two glucocorticoid responsive elements (GRE) present in the […] promoter region of mouse were connected in tandem was produced on order from synthetic DNA. The gene was incorporated into a plasmid vector having a gene encoding luciferase enzyme. The plasmid was incorporated into CHO-K1 cell to give a transfectant. The expression cell (CHO-GRE-Luc #35) produces luciferase instead of the object protein under regulation of a transcription region involved in the expression of the object protein. That is, using the cell, a substance that controls production of the object protein can be screened for by replacing the substance with the luciferase activity. Fetal Bovine Serum (FBS), L-glutamine, penicillin-streptomycin solution, PBS(−), trypsin-EDTA solution, Opti-MEM medium and G418 were obtained from GIBCO (Auckland, N.Z.). A 10 cm dish and DMEM:HAM′S F12 medium were obtained from IWAKI (Chiba, JP). A 96 well white plate was obtained from Corning (Corning, N.Y.). Bright-Glo was obtained from Promega (Madison, US). Dexamethasone was obtained from Sigma Chemicals (St. Louis, Mo.).
CHO-GRE-Luc #35 cells were cultured for several days in a 10 cm dish in a medium (10% FBS/DMEM:HAM'S F12/2.5 mM L-glutamine/50 U/mL penicillin/25 μg/mL streptomycin/500 μg/mL G418). Sub-confluent cells were washed with a suitable amount of PBS(−), 1 ml of Trypsin-EDTA was added and the cells were stood still in a CO2 incubator at 37° C. for 3 min. A 10-fold amount of Opti-MEM medium was added to give a suspension, which was placed in a centrifugal tube and centrifuged (25° C., 1,000 rpm, 5 min). The supernatant was removed, and the cells were suspended in 5 ml of Opti-MEM medium and counted.
Storage solutions (5-20 mM) of the compound were prepared with DMSO. The storage solutions were diluted with DMSO to 1 mM, and further diluted 100-fold with distilled water or Opti-MEM medium to give solutions. The preparations were diluted with 1% DMSO solution to each concentration. As GR agonist, 10 nM dexamethasone was used. 0.2% DMSO was present at the time of the function assay.
The prepared compound solutions (evaluation compound solution or 1% DMSO solution 10 μL+dexamethasone or 1% DMSO solution 10 μL) were added to the plate. After the addition, the place was stood still in a CO2 incubator at 37° C. for about 6 hr. After the reaction, Bright-Glo was added at 20 μL/well, and the mixture was gently shaken and measured by a microplate luminometer (Turner Designs Instrument).
The IC50 value (nM) of the evaluation compound against GR stimulation with dexamethasone was calculated using Prism 3.0 as an analysis software and assuming one-site competition.

| IC50 [nM] | Structure (SMILES) |
| --- | --- |
| 35 | CC1(C)Nc2c(cc(-c3ccnc4ncccc34)c3occc23)C(C)(C)C1=O [Example 102, 2,2,4,4-tetramethyl-6-([1,8]naphthyridin-4-yl)-1,2,3,4-tetrahydro-furo[2,3-h]quinolin-3-one] |
| 128 | Cc1noc(C)c1-c1cc2c(c3c1C(=O)CC3)NC(C)(C)C(=O)C2(C)C [Example 104, 6-(3,5-dimethylisoxazol-4-yl)-2,2,4,4-tetramethyl-2,3,4,7,8,9-hexahydro-1H-cyclopenta[h]quinoline-3,7-dione] |
